Reference: US20140179681A1, “METHODS AND COMPOSITIONS OF TARGETED DRUG DEVELOPMENT” (priority 2010, published 2014)
Read-outs that look alike come from different tables or passages of the source.

Assays:
[1] = tested on: epithelial carcinoma A431 cell line; assay: MTT Cell Proliferation Assay, A431 cells; assay type: cell-based; conditions: for IC50: Homo sapiens, A-431, Table 11
Method in brief: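 Each concentration ran in quadruplicate across duplicate plates, with compounds serially diluted in DMSO and delivered at 0.5% DMSO in 0.5% FBS medium for 3 days.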

EGF binding site = molecular target: T1, EGF binding site (Rattus norvegicus, UniProt G3V6K6); assay: Inhibition of [125I]EGF binding (EGF inhibitor assay, NovaScreen); conditions: determined at 25 μM; rat liver membranes; result in words
T1 construct: Receptor source was rat liver membranes; tissue NovaScreen BioSciences; host or cells: rat liver membranes
T1 sequence (G3V6K6 25-1209): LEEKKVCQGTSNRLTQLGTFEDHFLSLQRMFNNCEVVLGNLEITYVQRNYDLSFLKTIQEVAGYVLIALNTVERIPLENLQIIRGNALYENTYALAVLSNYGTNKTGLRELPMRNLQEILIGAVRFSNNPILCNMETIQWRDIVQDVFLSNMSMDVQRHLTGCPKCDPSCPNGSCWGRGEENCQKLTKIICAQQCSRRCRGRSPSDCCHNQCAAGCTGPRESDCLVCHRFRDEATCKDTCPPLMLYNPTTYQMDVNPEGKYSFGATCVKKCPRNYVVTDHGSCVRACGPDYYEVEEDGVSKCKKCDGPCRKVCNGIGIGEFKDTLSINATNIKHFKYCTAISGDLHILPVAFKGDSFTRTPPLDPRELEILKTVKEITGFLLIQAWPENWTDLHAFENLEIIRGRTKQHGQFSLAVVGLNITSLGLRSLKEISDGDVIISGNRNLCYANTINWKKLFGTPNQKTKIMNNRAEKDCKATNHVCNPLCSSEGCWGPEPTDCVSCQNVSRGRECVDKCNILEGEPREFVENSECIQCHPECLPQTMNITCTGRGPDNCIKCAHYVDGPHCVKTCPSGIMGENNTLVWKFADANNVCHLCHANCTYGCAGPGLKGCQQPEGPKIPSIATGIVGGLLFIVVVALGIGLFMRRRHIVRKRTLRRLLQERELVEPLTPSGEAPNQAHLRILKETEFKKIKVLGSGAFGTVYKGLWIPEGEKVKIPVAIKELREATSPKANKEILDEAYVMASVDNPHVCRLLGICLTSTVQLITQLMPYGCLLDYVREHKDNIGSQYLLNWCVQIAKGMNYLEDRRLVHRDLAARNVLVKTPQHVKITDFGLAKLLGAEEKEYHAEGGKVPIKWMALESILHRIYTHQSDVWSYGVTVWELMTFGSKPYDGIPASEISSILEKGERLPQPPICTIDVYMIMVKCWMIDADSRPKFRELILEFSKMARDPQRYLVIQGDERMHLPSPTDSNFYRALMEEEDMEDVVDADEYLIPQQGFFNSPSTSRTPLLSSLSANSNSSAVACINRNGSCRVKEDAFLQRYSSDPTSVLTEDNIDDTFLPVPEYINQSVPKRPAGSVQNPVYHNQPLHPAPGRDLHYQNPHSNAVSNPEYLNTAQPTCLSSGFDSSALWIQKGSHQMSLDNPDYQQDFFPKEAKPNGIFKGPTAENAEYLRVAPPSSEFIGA
Method: Identified compounds, representing various pharmacophore models, were tested for ability to inhibit EGFR at 25 μM.
AD4-compounds were identified using pharmacophore models (see Example 3, Example 4) and then were docked with the binding site of EGFR (SEQ ID NO: 1) that is recognized by defined CDRs of cetuximab. The inhibition of epidermal growth factor binding by AD4-compounds was then determined (NovaScreen BioSciences, Hanover, Md.). Inhibition of EGF binding was determined at 25 μM concentration.
Receptor source was rat liver membranes. The radioligand was [^125I]EGF ([…]) at a final ligand concentration of 0.36 nM. A non-specific determinant was used as EGF—[100 nM]. The reference compound and positive control was EGF. Reactions were carried out in 10 mM HEPES (pH 7.4) containing 0.1% BSA at 25° C. for 60 minutes. The reaction was terminated by rapid vacuum filtration onto glass fiber filters. Radioactivity trapped onto the filters was determined and compared to control values to ascertain any interactions of test compounds with the EGF binding site. The EGF inhibitor assays were modified from, for example, Mukku (1984) J. Biol. Chem. 259, 6543-6546; Duh et al. (1990) World J. Surgery 14, 410-418; Lokeshwar et al. (1989) J. Biol. Chem. 264(32), 19318-19326.

Row | SMILES | IC50 ([1]; first of x/y(ratio): A431, unit inferred, read-out: MTT Follow-up (first value)) [µM] | IC50 ([1]; first of x/y(ratio): A431, unit not printed (doses in μM), read-out: MTT Screen (first value)) [µM] | activity in A431 ([1]; standard at 23.5 μM final concentration) | activity in A431 ([1]; standard at 31.125 μM final concentration) [%] | inhibition of epidermal growth factor binding to its receptor (EGF binding site) | MTT assay (first value) ([1]; Table 10, first of x/y(ratio): A431, three day treatment, unit not printed (doses in μM))
1 | CCc1cc2c(CN3CCN(Cc4ccc5c(c4)OCO5)CC3)cc(=O)oc2cc1O [AD4-1734] | 22.1 | 22.8 | less than 100% | 100 | inhibitor of epidermal growth factor binding to its receptor | –
2 | Cc1cc(C)cc(NS(=O)(=O)c2ccc(NC(=S)Nc3ccccc3)cc2)c1 [AD4-11091] | – | – | – | – | inhibitor of epidermal growth factor binding to its receptor | non-convergent
